Results: ChEMBL document CHEMBL1201862, “PubChem BioAssay data set” (2004)
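These data come from cells grown in 96-well plates and exposed to compound for 48 hours at five concentrations. Here, GI50 denotes the concentration required for 50% inhibition of growth.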 Activity calls are given as the source filed them. Cut-off read from the data, not from the text of the source: active = GI50 up to about 1.1 µM and inactive = higher.

Tests used:
Experiment in all cases: NCI tumour cell line growth inhibition, 48 h
786-0 = tested on: 786-0
IGROV-1 = tested on: IGROV-1
MDA-MB-231 = tested on: MDA-MB-231
OVCAR-8 = tested on: OVCAR-8
U-251 = tested on: U-251
OVCAR-4 = tested on: OVCAR-4
SW-620 = tested on: SW-620
MDA-N = tested on: MDA-N
COLO 205 = tested on: COLO 205
ACHN = tested on: ACHN
UO-31 = tested on: UO-31
RXF 393 = tested on: RXF 393
MDA-MB-435 = tested on: MDA-MB-435
K562 = tested on: K562
CAKI-1 = tested on: CAKI-1
EKVX = tested on: EKVX
SR = tested on: SR
CCRF-CEM = tested on: CCRF-CEM

Measured: GI50

COC(=O)[C@H](Cc1c[nH]c2ccccc12)NC(=O)c1ccccc1I
inactive: 786-0 16.1 µM | IGROV-1 31.8 µM | MDA-MB-231 29.1 µM | OVCAR-8 31.7 µM | U-251 31 µM | OVCAR-4 30 µM | SW-620 31.5 µM | MDA-N 8.41 µM | COLO 205 17.5 µM | ACHN 17.1 µM | UO-31 19.3 µM | RXF 393 18.7 µM | MDA-MB-435 25.4 µM | K562 29.3 µM | CAKI-1 20.7 µM | EKVX > 100 µM | SR 24.2 µM

C=CCN1CCN([C@H](c2ccc(C(=O)N(CC)CC)cc2)c2cccc(OC)c2)CC1
inactive: 786-0 > 25 µM | IGROV-1 > 25 µM | MDA-MB-231 > 25 µM | OVCAR-8 > 25 µM | U-251 > 25 µM | OVCAR-4 > 25 µM | SW-620 > 25 µM | MDA-N > 25 µM | COLO 205 > 25 µM | ACHN > 25 µM | UO-31 > 25 µM | MDA-MB-435 > 25 µM | CAKI-1 > 25 µM | EKVX > 25 µM | SR > 25 µM

COc1cc(-c2oc3c(OC)c(O)c(OC)c(O)c3c(=O)c2OC)cc(OC)c1OC
inactive: 786-0 32.4 µM | IGROV-1 31.3 µM | MDA-MB-231 73.6 µM | OVCAR-8 53.7 µM | U-251 47.6 µM | OVCAR-4 > 100 µM | SW-620 > 100 µM | MDA-N 61.8 µM | COLO 205 83.8 µM | ACHN 48.3 µM | UO-31 17.3 µM | MDA-MB-435 35.4 µM | K562 36.7 µM | CAKI-1 42.8 µM | EKVX > 100 µM | CCRF-CEM 47.9 µM | SR 51.2 µM

C/C(=N\NC(N)=S)c1cccs1.OB(O)c1ccccc1
inactive: 786-0 > 100 µM | IGROV-1 > 100 µM | MDA-MB-231 > 100 µM | OVCAR-8 > 100 µM | U-251 > 100 µM | OVCAR-4 > 100 µM | SW-620 > 100 µM | MDA-N > 100 µM | COLO 205 > 100 µM | ACHN > 100 µM | UO-31 66.7 µM | MDA-MB-435 > 100 µM | K562 > 100 µM | CCRF-CEM > 100 µM | SR > 100 µM

O=C1/C(=C/c2ccc(Cl)cc2)NC(=S)N1CN1CCCCC1
inactive: 786-0 30.2 µM | IGROV-1 33.8 µM | MDA-MB-231 49.9 µM | OVCAR-8 36.7 µM | U-251 47.2 µM | SW-620 20.7 µM | MDA-N 63 µM | COLO 205 28 µM | ACHN 24.6 µM | UO-31 28.1 µM | MDA-MB-435 45.5 µM | K562 34 µM | EKVX 28.2 µM | CCRF-CEM 17.8 µM | SR 34.8 µM

C[N+]12C=CC=C1C(N1CCCC1)c1scc(-c3ccccc3)c12 (configuration not stated)
inactive: 786-0 47.4 µM | IGROV-1 4.99 µM | MDA-MB-231 37.8 µM | OVCAR-8 22.5 µM | U-251 5.92 µM | SW-620 93.3 µM | MDA-N 18.8 µM | COLO 205 15.1 µM | UO-31 > 100 µM | RXF 393 17.8 µM | MDA-MB-435 36.2 µM | K562 6 µM | CAKI-1 > 100 µM | EKVX 14.5 µM | CCRF-CEM 22.4 µM | SR 12.6 µM

Cc1ccc(O)c(Cc2nc3ccccc3nc2-c2cccc(Cl)c2)c1
inactive: 786-0 > 100 µM | IGROV-1 35.2 µM | MDA-MB-231 46.3 µM | OVCAR-8 > 100 µM | U-251 35.4 µM | OVCAR-4 10.6 µM | SW-620 59 µM | MDA-N 29.5 µM | COLO 205 58.6 µM | ACHN 49 µM | UO-31 32.1 µM | RXF 393 > 100 µM | MDA-MB-435 21.4 µM | K562 28.5 µM | CAKI-1 52.7 µM | EKVX 34.7 µM | SR 24.7 µM
